Measurements reported in article PMC7180948, “New Insights into 4-Anilinoquinazolines as Inhibitors of Cardiac Troponin I–Interacting Kinase (TNNi3K)” (Molecules, 2020).

Tests used:
PDFRB = biological target: T1, PDFRB (Homo sapiens, UniProt P09619); test: KINOMEscan at […], single concentration; type: binding
T1 construct: gene PDGFRB

STK36 = STK36 (Homo sapiens, UniProt Q9NRP7); test: KINOMEscan at […], single concentration; type: binding
PRKCD = PRKCD (Homo sapiens, UniProt Q05655); test: biochemical; set-up: KINOMEscan competition binding panel (Eurofins DiscoverX), single concentration, % inhibition; settings: read-out: 7 at 1 µM % inhibition
PRKCD, sequence (Q05655 whole entry): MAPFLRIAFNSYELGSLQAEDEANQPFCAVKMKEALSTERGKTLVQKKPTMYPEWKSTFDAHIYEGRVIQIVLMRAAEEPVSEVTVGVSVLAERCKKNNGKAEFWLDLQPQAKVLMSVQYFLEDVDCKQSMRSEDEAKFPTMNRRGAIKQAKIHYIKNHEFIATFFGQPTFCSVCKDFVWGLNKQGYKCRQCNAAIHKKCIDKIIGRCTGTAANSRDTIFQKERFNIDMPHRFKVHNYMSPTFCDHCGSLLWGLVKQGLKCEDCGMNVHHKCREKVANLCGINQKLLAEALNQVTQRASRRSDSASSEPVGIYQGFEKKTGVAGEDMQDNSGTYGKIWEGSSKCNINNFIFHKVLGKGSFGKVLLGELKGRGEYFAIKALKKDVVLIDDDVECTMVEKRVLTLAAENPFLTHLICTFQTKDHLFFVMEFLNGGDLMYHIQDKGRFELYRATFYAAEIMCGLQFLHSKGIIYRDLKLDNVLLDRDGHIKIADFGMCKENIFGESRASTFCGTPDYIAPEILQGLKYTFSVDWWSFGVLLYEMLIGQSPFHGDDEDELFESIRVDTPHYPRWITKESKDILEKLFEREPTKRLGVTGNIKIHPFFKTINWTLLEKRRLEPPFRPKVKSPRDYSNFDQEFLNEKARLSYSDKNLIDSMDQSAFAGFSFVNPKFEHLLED
Method: (§1) KinomeScan® Assay on 7 and 15 was performed as previously described by EuroFins DiscoverX [24]. GSK114 (7) and 15 were submitted for a KINOMEscan® assay to explore the selectivity profile across >400 human kinases at a compound concentration of 1 µM. […] GSK114 (7) is a narrow-spectrum TNNi3K inhibitor but has some potent off-targets including GAK which has been previously reported for this chemotype. […] If utilized together this set of compounds could be useful to investigate TNNi3K biology.

CTK = biological target: T2, CTK (Homo sapiens, UniProt P42679); test: biochemical; set-up: KINOMEscan competition binding panel (Eurofins DiscoverX), single concentration, % inhibition; settings: read-out: 7 at 1 µM % inhibition
T2 construct: gene MATK
Method: as §1

CIT = CIT (Homo sapiens, UniProt O14578); test: biochemical; set-up: KINOMEscan competition binding panel (Eurofins DiscoverX), single concentration, % inhibition; settings: read-out: 7 at 1 µM % inhibition
Method: as §1

PIK3CA(H1047Y) = PIK3CA(H1047Y) (Homo sapiens, UniProt P42336, H1047Y); test: biochemical; set-up: KINOMEscan competition binding panel (Eurofins DiscoverX), single concentration, % inhibition; settings: read-out: 7 at 1 µM % inhibition
PIK3CA(H1047Y), sequence (P42336 whole entry H1047Y): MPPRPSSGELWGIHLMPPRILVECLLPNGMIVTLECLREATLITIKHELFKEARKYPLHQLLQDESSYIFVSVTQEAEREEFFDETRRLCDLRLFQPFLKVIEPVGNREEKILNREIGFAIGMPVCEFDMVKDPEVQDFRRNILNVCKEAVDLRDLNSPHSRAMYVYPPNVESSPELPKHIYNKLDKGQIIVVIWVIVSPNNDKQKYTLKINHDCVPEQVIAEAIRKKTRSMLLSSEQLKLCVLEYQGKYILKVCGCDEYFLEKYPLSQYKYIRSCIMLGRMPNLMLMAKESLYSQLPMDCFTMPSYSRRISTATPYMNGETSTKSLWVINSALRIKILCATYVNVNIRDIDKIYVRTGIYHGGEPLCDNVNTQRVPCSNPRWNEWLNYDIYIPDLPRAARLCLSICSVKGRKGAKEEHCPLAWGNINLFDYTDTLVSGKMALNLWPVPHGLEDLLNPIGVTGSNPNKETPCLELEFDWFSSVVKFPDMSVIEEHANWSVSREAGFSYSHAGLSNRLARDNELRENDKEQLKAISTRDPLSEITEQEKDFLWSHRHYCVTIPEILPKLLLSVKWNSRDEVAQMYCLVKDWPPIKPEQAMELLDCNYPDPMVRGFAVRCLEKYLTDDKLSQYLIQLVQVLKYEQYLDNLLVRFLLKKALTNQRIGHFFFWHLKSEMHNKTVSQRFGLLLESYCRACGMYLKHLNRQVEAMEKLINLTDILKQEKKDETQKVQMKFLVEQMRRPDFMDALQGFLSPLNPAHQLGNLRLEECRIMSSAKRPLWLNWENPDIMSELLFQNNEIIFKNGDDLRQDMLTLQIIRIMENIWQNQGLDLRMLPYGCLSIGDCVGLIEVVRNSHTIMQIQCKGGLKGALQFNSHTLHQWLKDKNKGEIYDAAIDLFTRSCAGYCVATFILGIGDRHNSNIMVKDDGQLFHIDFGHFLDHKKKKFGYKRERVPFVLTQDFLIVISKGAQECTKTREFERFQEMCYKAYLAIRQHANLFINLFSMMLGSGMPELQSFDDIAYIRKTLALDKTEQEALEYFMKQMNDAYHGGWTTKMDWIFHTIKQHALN
Method: as §1

FGFR3(G697C) = FGFR3(G697C) (Homo sapiens, UniProt P22607, G697C); test: biochemical; set-up: KINOMEscan competition binding panel (Eurofins DiscoverX), single concentration, % inhibition; settings: read-out: 7 at 1 µM % inhibition
Method: as §1

PDGFRA = PDGFRA (Homo sapiens, UniProt P16234); test: biochemical; set-up: KINOMEscan competition binding panel (Eurofins DiscoverX), single concentration, % inhibition; settings: read-out: 7 at 1 µM % inhibition
Method: as §1

EPHA1 = EPHA1 (Homo sapiens, UniProt P21709); test: biochemical; set-up: KINOMEscan competition binding panel (Eurofins DiscoverX), single concentration, % inhibition; settings: read-out: 7 at 1 µM % inhibition
Method: as §1

VEGFR2 = biological target: T3, VEGFR2 (Homo sapiens, UniProt P35968); test: biochemical; set-up: KINOMEscan competition binding panel (Eurofins DiscoverX), single concentration, % inhibition; settings: read-out: 7 at 1 µM % inhibition
T3 construct: gene KDR
Method: as §1

CDK9 = CDK9 (Homo sapiens, UniProt P50750); test: biochemical; set-up: KINOMEscan competition binding panel (Eurofins DiscoverX), single concentration, % inhibition; settings: read-out: 7 at 1 µM % inhibition
Method: as §1

CDC2L5 = biological target: T4, CDC2L5 (Homo sapiens, UniProt Q14004); test: biochemical; set-up: KINOMEscan competition binding panel (Eurofins DiscoverX), single concentration, % inhibition; settings: read-out: 7 at 1 µM % inhibition
T4 construct: gene CDK13
Method: as §1

BRK = biological target: T5, BRK (Homo sapiens, UniProt Q13882); test: biochemical; set-up: KINOMEscan competition binding panel (Eurofins DiscoverX), single concentration, % inhibition; settings: read-out: 7 at 1 µM % inhibition
T5 construct: gene PTK6
T5 sequence (Q13882 whole entry): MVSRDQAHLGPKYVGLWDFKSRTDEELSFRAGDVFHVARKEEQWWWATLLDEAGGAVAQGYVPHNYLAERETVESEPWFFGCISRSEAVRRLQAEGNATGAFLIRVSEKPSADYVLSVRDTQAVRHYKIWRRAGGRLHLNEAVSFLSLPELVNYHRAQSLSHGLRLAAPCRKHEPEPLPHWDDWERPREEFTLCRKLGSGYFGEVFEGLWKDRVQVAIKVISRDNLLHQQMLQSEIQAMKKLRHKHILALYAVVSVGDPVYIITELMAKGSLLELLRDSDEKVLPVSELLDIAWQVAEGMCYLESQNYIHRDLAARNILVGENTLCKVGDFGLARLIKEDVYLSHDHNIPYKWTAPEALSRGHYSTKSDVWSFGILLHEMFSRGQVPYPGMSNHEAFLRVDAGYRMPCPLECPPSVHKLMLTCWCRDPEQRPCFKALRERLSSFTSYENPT
Method: as §1

GRK4 = GRK4 (Homo sapiens, UniProt P32298); test: biochemical; set-up: KINOMEscan competition binding panel (Eurofins DiscoverX), single concentration, % inhibition; settings: read-out: 7 at 1 µM % inhibition
Method: as §1

LCK = LCK (Homo sapiens, UniProt P06239); test: biochemical; set-up: KINOMEscan competition binding panel (Eurofins DiscoverX), single concentration, % inhibition; settings: read-out: 7 at 1 µM % inhibition
Method: as §1

ABL1-phosphorylated = biological target: T6, ABL1-phosphorylated (Homo sapiens, UniProt P00519); test: biochemical; set-up: KINOMEscan competition binding panel (Eurofins DiscoverX), single concentration, % inhibition; settings: read-out: 7 at 1 µM % inhibition
T6 construct: phosphorylated
Method: as §1

CLK3 = CLK3 (Homo sapiens, UniProt P49761); test: biochemical; set-up: KINOMEscan competition binding panel (Eurofins DiscoverX), single concentration, % inhibition; settings: read-out: 7 at 1 µM % inhibition
CLK3, sequence (P49761 whole entry): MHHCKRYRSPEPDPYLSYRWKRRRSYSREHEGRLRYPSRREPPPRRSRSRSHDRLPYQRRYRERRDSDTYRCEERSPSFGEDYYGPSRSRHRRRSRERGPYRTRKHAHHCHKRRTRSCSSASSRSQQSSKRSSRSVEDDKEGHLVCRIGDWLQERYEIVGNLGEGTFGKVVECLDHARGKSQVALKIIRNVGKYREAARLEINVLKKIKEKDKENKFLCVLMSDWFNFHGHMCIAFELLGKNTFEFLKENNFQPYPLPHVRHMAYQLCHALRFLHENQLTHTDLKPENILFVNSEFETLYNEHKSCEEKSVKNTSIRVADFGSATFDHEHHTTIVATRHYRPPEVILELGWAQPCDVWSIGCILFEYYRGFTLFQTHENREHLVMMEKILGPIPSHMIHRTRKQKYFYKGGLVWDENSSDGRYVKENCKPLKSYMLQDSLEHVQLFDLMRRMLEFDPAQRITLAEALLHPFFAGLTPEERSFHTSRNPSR
Method: as §1

CSNK1A1L = CSNK1A1L (Homo sapiens, UniProt Q8N752); test: biochemical; set-up: KINOMEscan competition binding panel (Eurofins DiscoverX), single concentration, % inhibition; settings: read-out: 7 at 1 µM % inhibition
CSNK1A1L, sequence (Q8N752 whole entry): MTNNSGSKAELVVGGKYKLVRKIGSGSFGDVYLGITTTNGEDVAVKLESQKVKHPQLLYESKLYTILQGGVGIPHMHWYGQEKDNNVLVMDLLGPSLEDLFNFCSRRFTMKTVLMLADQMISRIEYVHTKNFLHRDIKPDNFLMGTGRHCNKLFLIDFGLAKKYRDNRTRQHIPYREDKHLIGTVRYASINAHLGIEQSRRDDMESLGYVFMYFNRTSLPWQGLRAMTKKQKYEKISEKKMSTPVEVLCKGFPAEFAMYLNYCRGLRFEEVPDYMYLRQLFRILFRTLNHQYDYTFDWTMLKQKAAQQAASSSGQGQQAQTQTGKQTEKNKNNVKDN
Method: as §1

SGK3 = SGK3 (Homo sapiens, UniProt Q96BR1); test: biochemical; set-up: KINOMEscan competition binding panel (Eurofins DiscoverX), single concentration, % inhibition; settings: read-out: 7 at 1 µM % inhibition
Method: as §1

[1] = biological target: T7, ABL1(F317I)-phosphorylated (Homo sapiens, UniProt P00519, F317I); test: biochemical; set-up: KINOMEscan competition binding panel (Eurofins DiscoverX), single concentration, % inhibition; settings: read-out: 7 at 1 µM % inhibition
T7 construct: phosphorylated
Method: as §1

TSSK1B = TSSK1B (Homo sapiens, UniProt Q9BXA7); test: biochemical; set-up: KINOMEscan competition binding panel (Eurofins DiscoverX), single concentration, % inhibition; settings: read-out: 7 at 1 µM % inhibition
TSSK1B, sequence (Q9BXA7 whole entry): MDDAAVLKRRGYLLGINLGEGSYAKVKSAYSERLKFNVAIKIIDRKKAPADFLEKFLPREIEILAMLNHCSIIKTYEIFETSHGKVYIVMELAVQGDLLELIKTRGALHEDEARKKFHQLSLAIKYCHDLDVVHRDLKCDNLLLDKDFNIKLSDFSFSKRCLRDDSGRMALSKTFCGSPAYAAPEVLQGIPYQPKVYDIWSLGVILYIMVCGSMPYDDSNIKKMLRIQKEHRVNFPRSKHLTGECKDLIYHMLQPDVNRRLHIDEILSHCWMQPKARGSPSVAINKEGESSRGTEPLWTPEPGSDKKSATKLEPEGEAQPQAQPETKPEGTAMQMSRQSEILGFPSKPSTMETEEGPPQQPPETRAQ
Method: as §1

[2] = biological target: T8, TYK2(JH2domain-pseudokinase) (Homo sapiens, UniProt P29597); test: biochemical; set-up: KINOMEscan competition binding panel (Eurofins DiscoverX), single concentration, % inhibition; settings: read-out: 7 at 1 µM % inhibition
T8 construct: JH2domain-pseudokinase
Method: as §1

MYLK4 = MYLK4 (Homo sapiens, UniProt Q86YV6); test: biochemical; set-up: KINOMEscan competition binding panel (Eurofins DiscoverX), single concentration, % inhibition; settings: read-out: 7 at 1 µM % inhibition
Method: as §1

ABL2 = ABL2 (Homo sapiens, UniProt P42684); test: biochemical; set-up: KINOMEscan competition binding panel (Eurofins DiscoverX), single concentration, % inhibition; settings: read-out: 7 at 1 µM % inhibition
Method: as §1

MEK5 = biological target: T9, MEK5 (Homo sapiens, UniProt Q13163); test: KINOMEscan at […], single concentration; type: binding
T9 construct: gene MAP2K5
T9 sequence (Q13163 whole entry): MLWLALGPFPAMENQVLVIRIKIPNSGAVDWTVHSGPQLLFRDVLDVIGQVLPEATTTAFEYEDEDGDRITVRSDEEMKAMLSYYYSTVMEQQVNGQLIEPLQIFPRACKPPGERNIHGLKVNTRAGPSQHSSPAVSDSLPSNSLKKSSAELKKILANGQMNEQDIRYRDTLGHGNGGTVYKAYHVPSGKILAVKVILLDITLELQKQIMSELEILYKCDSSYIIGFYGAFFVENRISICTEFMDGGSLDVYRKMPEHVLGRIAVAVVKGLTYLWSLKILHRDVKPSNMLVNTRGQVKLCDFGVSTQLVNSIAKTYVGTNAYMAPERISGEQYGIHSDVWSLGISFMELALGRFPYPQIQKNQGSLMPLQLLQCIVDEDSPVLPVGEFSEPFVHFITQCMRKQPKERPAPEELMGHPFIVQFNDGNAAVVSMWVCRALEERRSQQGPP

T1 sequence (P09619 33-1106): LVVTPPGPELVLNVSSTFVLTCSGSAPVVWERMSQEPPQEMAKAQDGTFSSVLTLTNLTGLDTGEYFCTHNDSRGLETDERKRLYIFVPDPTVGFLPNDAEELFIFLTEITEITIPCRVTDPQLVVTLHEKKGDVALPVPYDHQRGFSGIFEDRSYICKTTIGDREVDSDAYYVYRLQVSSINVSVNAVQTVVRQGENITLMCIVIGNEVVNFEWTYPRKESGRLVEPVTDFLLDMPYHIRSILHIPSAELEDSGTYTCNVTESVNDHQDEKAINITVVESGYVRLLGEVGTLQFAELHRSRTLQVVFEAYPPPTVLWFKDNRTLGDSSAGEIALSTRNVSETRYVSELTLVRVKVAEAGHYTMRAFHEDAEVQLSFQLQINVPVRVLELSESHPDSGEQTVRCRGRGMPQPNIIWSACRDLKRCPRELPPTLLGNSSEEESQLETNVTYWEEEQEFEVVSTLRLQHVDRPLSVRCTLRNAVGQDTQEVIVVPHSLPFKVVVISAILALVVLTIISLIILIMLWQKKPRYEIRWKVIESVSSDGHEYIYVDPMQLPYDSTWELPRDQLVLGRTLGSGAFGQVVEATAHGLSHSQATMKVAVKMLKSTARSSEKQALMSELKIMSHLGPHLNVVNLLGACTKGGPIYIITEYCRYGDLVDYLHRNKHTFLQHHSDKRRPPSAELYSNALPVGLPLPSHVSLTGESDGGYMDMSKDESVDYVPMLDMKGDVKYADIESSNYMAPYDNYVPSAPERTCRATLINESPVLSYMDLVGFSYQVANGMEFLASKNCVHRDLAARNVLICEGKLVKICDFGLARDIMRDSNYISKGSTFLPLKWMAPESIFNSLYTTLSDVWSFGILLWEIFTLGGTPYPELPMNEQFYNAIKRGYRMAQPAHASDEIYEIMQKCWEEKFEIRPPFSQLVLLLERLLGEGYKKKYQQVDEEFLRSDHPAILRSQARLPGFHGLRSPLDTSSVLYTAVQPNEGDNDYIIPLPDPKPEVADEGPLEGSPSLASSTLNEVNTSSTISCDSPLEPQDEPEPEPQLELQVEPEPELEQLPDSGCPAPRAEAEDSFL

CNS(=O)(=O)c1ccc(N(C)C)c(Nc2ncnc3cc(OC)c(OC)cc23)c1 [compound 7, 3-((6,7-dimethoxyquinazolin-4-yl)amino)-4-(dimethylamino)-N-methylbenzenesulfonamide] was tested, and the inhibition at 1 µM (PDFRB) was 91%, the inhibition at 1 µM (STK36) was 94% and the inhibition at 1 µM (PRKCD) was 24%. It also gave an inhibition at 1 µM (CTK) of 1%, an inhibition at 1 µM (CIT) of 0% and an inhibition at 1 µM (PIK3CA(H1047Y)) of 17%. The inhibition at 1 µM (FGFR3(G697C)) was 0%, the inhibition at 1 µM (PDGFRA) was 69% and the inhibition at 1 µM (EPHA1) was 0%. It also gave an inhibition at 1 µM (VEGFR2) of 26%, an inhibition at 1 µM (CDK9) of 0% and an inhibition at 1 µM (CDC2L5) of 0%. For the same compound, the inhibition at 1 µM (BRK) was 0%, the inhibition at 1 µM (GRK4) was 0% and the inhibition at 1 µM (LCK) was 63%. It also gave an inhibition at 1 µM (ABL1-phosphorylated) of 26%, an inhibition at 1 µM (CLK3) of 18% and an inhibition at 1 µM (CSNK1A1L) of 0%. It also gave an inhibition at 1 µM (SGK3) of 1%, an inhibition at 1 µM [1] of 40% and an inhibition at 1 µM (TSSK1B) of 0%. It also gave an inhibition at 1 µM [2] of 0%, an inhibition at 1 µM (MYLK4) of 0% and an inhibition at 1 µM (ABL2) of 0%. For the same compound, the inhibition at 1 µM (MEK5) was 100%.
CNS(=O)(=O)c1ccc(N(C)C)c(Nc2nc(C)nc3cc(OC)c(OC)cc23)c1 [compound 15, 3-((6,7-dimethoxy-2-methylquinazolin-4-yl)amino)-4-(dimethylamino)-N-methylbenzenesulfonamide] showed an inhibition at 1 µM (MEK5) of 92%.
